Literature values in patent publication US20150087671A1, “LOW BURST SUSTAINED RELEASE LIPOPHILIC AND BIOLOGIC AGENT COMPOSITIONS” (Micell Technologies, Inc., priority 2012, published 2015).
pIC50: −log10 of the molar value.

Assays:
mTOR = mTOR (Homo sapiens, UniProt P42345)
PI3K/mTOR = conditions: read-out: IC50, dual PI3K/mTOR inhibitor (target not specified further)
[1] = tested on: phosphorylation of AKT T308

CO[C@H]1C[C@@H]2CC[C@@H](C)[C@@](O)(O2)C(=O)C(=O)N2CCCC[C@H]2C(=O)O[C@H]([C@H](C)C[C@@H]2CC[C@@H](OCCO)[C@H](OC)C2)CC(=O)[C@H](C)/C=C(\C)[C@@H](O)[C@@H](OC)C(=O)[C@H](C)C[C@H](C)/C=C/C=C/C=C/1C [Everolimus, 40-O-(2-Hydroxyethyl)rapamycin]
pIC50 (mTOR): 9.20

COc1ccc(-c2ccc3ncc4c(c3c2)n(-c2ccc(N3CCNCC3)c(C(F)(F)F)c2)c(=O)n4C)cn1 [NVP-BGT226]
pIC50 (PI3K/mTOR): 9.00

COc1ccc(-c2cc3c(C)nc(N)nc3n([C@H]3CC[C@H](OCCO)CC3)c2=O)cn1 [PF-04691502]
pIC50 [1]: 8.12

Nc1ncnc2c1c(-c1cnc3[nH]ccc3c1)nn2C1CCCC1 [PP121]
pIC50 (PDGFR): 8.70

COc1ccc(COc2cc3oc(=O)c4cc(C(C)O)ccc4c3cc2OC)cc1 (stereo not shown) [Palomid 529]
GI50 (NCI-60 cell lines panel): < 35000 nM

CO[C@H]1C[C@@H]2CC[C@@H](C)[C@@](O)(O2)C(=O)C(=O)N2CCCC[C@H]2C(=O)O[C@H]([C@H](C)C[C@@H]2CC[C@@H](O)[C@H](OC)C2)CC(=O)[C@H](C)/C=C(\C)[C@@H](O)[C@@H](OC)C(=O)[C@H](C)C[C@H](C)/C=C/C=C/C=C/1C [Rapamycin, rapamycin]
bioavailability (Rapamune oral tablets or solution): < 14%
blood concentrations (once daily oral dosing, immunosuppressive dose 2 or 5 mg daily): 6 to 50 ng/mL

c1cncc(CN2CCC(n3ncc4c(N5CCOCC5)nc(-c5ccc6[nH]ccc6c5)nc43)CC2)c1 [WAY-600]
pIC50 (mTOR): 8.05

COC(=O)Nc1ccc(-c2nc(N3CCOCC3)c3cnn(C4CCN(C(=O)OC)CC4)c3n2)cc1 [WYE-354]
pIC50 (mTOR): 8.30

CNC(=O)Nc1ccc(-c2nc(N3CC4CCC(C3)O4)c3cnn(C4CCC5(CC4)OCCO5)c3n2)cc1 [WYE-125132]
pIC50 (mTOR): 9.72
